Laboratory results published in US6747023B1 (Daiichi Pharmaceutical Co., Ltd., priority 1998, dated 2004).
Counter-ions that a name gives are not always drawn. Like-named read-outs stand apart in the source and are kept apart here.

Legend:
human thrombin = target: T1, human thrombin (Homo sapiens, UniProt P00734); assay: Measurement of thrombin inhibitory action (IC50); type: biochemical
T1 construct: carries out limited proteolysis of prothrombin, thereby forming thrombin; purchased Sigma Chemical
Method: Measurement of Thrombin Inhibitory Action (IC50)
In a 96-well microtiter plate, 10 μl of a sample solution, 40 μl of a 100 mM tris.200 mM sodium chloride 0.2% BSA (pH: 7.4) buffer and 10 μl of 4 U/ml human thrombin (Sigma Chemical, dissolved in and diluted with a measuring buffer) were poured in portions, followed by the addition of 40 μl of 500 μM S2266 (product of Chromogenix). An increase (mOD/min) in the absorbance at 405 nm was measured at room temperature. From the below-described equation, an inhibitory ratio % of each sample was determined. On a logarithmic probability paper, the final concentration of the sample and inhibitory ratio % were plotted along the abscissa and the ordinate, respectively, whereby a 50% inhibitory concentration (IC50) was found.
(§1) Inhibitory ratio (%)=(1−OD of sample÷OD of control)×100

human FXa = target: T2, human FXa (Homo sapiens, UniProt P00742); assay: Measurement of FXa inhibitory action (IC50); type: biochemical
T2 construct: purchased Cosmobio-ERL HFXa-1011
T2 sequence (P00742 235-488 limits assumed): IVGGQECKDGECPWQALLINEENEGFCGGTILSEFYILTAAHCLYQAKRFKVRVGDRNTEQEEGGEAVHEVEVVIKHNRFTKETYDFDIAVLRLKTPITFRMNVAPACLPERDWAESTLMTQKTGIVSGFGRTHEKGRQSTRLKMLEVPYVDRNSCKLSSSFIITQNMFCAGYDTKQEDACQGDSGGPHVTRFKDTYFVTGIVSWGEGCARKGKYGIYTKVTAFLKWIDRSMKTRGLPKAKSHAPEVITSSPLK
T2 sequence (P00742 41-179 partner limits assumed): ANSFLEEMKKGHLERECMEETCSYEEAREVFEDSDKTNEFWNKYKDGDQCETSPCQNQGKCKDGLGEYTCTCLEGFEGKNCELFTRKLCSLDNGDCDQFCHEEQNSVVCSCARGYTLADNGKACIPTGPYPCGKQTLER
Method: Measurement of FXa Inhibitory Action (IC50)
From the below-described equation, an inhibitory ratio % of each sample was determined.
as §1

human Factor Xa = human Factor Xa (Homo sapiens, UniProt P00742); assay: Test of oral administration: anti-FXa activity in the plasma; type: in vivo, Wistar male rat; details: rat, one hour after the oral administration of 30 mg/kg
Chain of human Factor Xa (P00742 235-488 limits assumed): as the sequence (P00742 235-488 limits assumed) above
Chain of human Factor Xa (P00742 41-179 partner limits assumed): as the sequence (P00742 41-179 partner limits assumed) above
Method: (§2) A sample was dissolved or suspended in a 0.5% (w/v) methyl cellulose solution and the resulting solution or suspension was orally administered (10 ml/kg) to a 8 to 11 week-old rat (Wistar male rat (Nippon SLC Co., Ltd.)) which had been fasted overnight. After administration of the sample, the blood to which 1/10 part by weight of 3.13% (w/v) sodium citrate had been added was collected from the cervical vein under anesthesia with halothane. The rat was awakened except during the blood collection. Feeding was re-started 6 hours after the blood collection. From each blood sample, the plasma was separated by centrifugal separation and anti-FXa activity in the blood and prothrombin time extending action were measured.
In a 96-well plate, 5 μl of the plasma was poured in portions, followed by the addition of 55 μl of a 8:1:2 mixture of 100 mM tris.200 mM sodium chloride.0.2% BSA (pH 7.4) buffer, water and 0.1 U/ml human Factor Xa solution (dissolved in and diluted with a measuring buffer) and 40 μl of 750 μM S-2222. After stirring for 10 seconds in a plate mixer, an increase (mOD/min) of the absorbance at 405 nm was measured at room temperature. The inhibitory ratio was calculated as follows:
An inhibitory ratio (%)=(1−OD of sample÷OD of control on average relative to blood-collecting time of sample)×100

[1] = tested on: prothrombin time of the plasma; assay: Test of oral administration: coagulation extending action (prothrombin time); type: in vivo, Wistar male rat; details: rat, oral administration of 30 mg/kg
Method: as §2
To 20 μl of the plasma, 40 μl of cynplastin (Organon Teknika/USA) was added and the coagulation time was measured. The ratio of the prothrombin time after the administration of the sample relative to the prothrombin time before the administration of the sample was designated as an index of the coagulation extending action.

[2] = tested on: tissue thromboplastin-derived DIC; assay: Anti-thrombus effects in a tissue thromboplastin-derived rat DIC model; type: in vivo; details: oral 30 mg/kg, tissue thromboplastin one hour after the sample
Method: A rat was anesthetized with halothane. After the collection of the blood (for measurement of the number of platelets, anti-FXa activity and TAT) from its cervical vein by using 1/10 part by weight of 3.13% (w/v) sodium citrate, the sample was administered orally. At an appropriate time after the administration, the rat was intraperitoneally anesthetized ([…]) with Nembutal (50 mg/ml pentobarbital sodium, Abott Laboratories), followed by intravenous drip of 0.2 U/ml of tissue thromboplastin (Thromboplastin C plus, Dade Diagnostics of P. R. Inc.,) from the femoral vein for one minute at a rate of 2.5 to 3.0 ml/kg/min. The blood was collected (for measuring the number of platelets and anti-FXa activity) from the cervical vein 10 minutes after the intravenous drip and the blood was collected (for measuring TAT) from the cervical vein 20 minutes after the blood collection. The number of platelets, anti-FXa activity in the plasma and TAT concentration of each blood sample were measured. The number of the platelets was measured by an automatic cytometer, while the anti-FXa activity in the plasma was measured in a similar manner to that described in Test 4.
For the measurement of TAT (Thrombin-anti Thrombin=complex), EnzygnostR TAT micro kit (Boering Verke) was employed.

[3] = 4 U/ml human thrombin, substrate S2266, absorbance at 405 nm, room temperature, read-out: Concentration (nM) of the sample at which 50% of thrombin activity is inhibited
[4] = 0.05 U/ml human FXa, substrate S2222, absorbance at 405 nm, room temperature, read-out: Concentration (nM) of the sample at which 50% of Fxa activity is inhibited

Row | IC50 (human thrombin; [3]) | IC50 (human FXa; [4]) | Compound | other results
1 | 4100 nM | 10.5 nM | O=C(c1ccc(-c2cccc[n+]2[O-])cc1)N1CCN(S(=O)(=O)c2cc3ccc(Cl)cc3s2)CC1 [Example A-117, 2-[4-[[4-[(6-Chlorobenzo[b]thien-2-yl)sulfonyl]piperazin-1-yl]carbonyl]phenyl]pyridine N-oxide] | 
2 | 5900 nM | 5 nM | O=C(c1cnc(-c2ccncc2)cn1)N1CCN(S(=O)(=O)c2cc3cc(Cl)ccc3[nH]2)CC1 [Example A-138, 1-[(5-Chloroindol-2-yl)sulfonyl]-4-[[5-(pyridin-4-yl)pyrazin-2-yl]carbonyl]piperazine] | 
3 | 1370 nM | 6.8 nM | O=C(c1cnc(-c2cc[n+]([O-])cc2)cn1)N1CCN(S(=O)(=O)c2cc3cc(Cl)ccc3[nH]2)CC1 [Example A-140, 4-[5-[[4-[(5-Chloroindol-2-yl)sulfonyl]piperazin-1-yl]carbonyl]pyrazin-2-yl]pyridine N-oxide] | 
4 | 7700 nM | 10 nM | O=C(c1ncc(-c2cc[n+]([O-])cc2)cn1)N1CCN(S(=O)(=O)c2cc3ccc(Cl)cc3s2)CC1 [Example A-133, 4-[2-[[4-[(6-Chlorobenzo[b]thien-2-yl)sulfonyl]piperazin-1-yl]carbonyl]pyrimidin-5-yl]pyridine N-oxide] | 
5 |  |  | CN1Cc2ccc(C(=O)N3CCN(S(=O)(=O)c4cc5cc(Cl)ccc5[nH]4)CC3)cc2C1 (as salt: salt) [Example B-190, 1-[(5-Chloroindol-2-yl)sulfonyl]-4-[(2-methylisoindolin-5-yl)carbonyl]piperazine] | melting point: 175 to 180 °C (dec.)
6 | 4100 nM | 60 nM | O=C(c1cnc(-c2ccncc2)cn1)N1CCN(S(=O)(=O)c2ccc3cc(Cl)ccc3c2)CC1 [Example A-137, 1-[(6-Chloronaphthalen-2-yl)sulfonyl]-4-[[5-(pyridin-4-yl)pyrazin-2-yl]carbonyl]piperazine] | 
7 | 19000 nM |  | O=C(c1ncc(-c2ccncc2)cn1)N1CCN(S(=O)(=O)c2cc3cc(Cl)ccc3[nH]2)CC1 [Example A-105, 1-[(5-Chloroindol-2-yl)sulfonyl]-4-[[5-(pyridin-4-yl)pyrimidin-2-yl]carbonyl]piperazine] | 
8 |  |  | CN1CCc2nc(C(=O)N3CCN(S(=O)(=O)c4cc5cc(Cl)ccc5[nH]4)CC3)sc2C1 [Example B-54, hydrochloride] | IC50 (human thrombin; same test as Tables 7-8, read-out: thrombin 50% inhibitory concentration): 1050 nM; IC50 (human FXa; same test as Tables 1-6, read-out: FXa 50% inhibitory concentrations): 5 nM
9 | 10200 nM | 4.6 nM | O=C(c1ncc(-c2cc[n+]([O-])cc2)cn1)N1CCN(S(=O)(=O)c2cc3cc(Cl)ccc3[nH]2)CC1 [Example A-134, 4-[2-[[4-[(5-Chloroindol-2-yl)sulfonyl]piperazin-1-yl]carbonyl]pyrimidin-5-yl]pyridine N-oxide] | 
10 |  |  | O=C(c1ccc2c(c1)CNC2)N1CCN(S(=O)(=O)c2cc3cc(Cl)ccc3[nH]2)CC1 [Example B-189, 1-[(5-Chloroindol-2-yl)sulfonyl]-4-[(isoindolin-5-yl)carbonyl]piperazine] | melting point: 196 to 199 °C (dec.)
11 | > 50000 nM | 15 nM | C#Cc1ccc2cc(S(=O)(=O)N3CCN(C(=O)c4ncc(-c5ccncc5)cn4)CC3)sc2c1 [Example A-216, 4-[[5-(Pyridin-4-yl)pyrimidin-2-yl]carbonyl]-1-[(6-ethynylbenzo[b]thien-2-yl)sulfonyl]piperazine] | 
12 |  |  | CC1Cc2nc(C(=O)N3CCN(S(=O)(=O)c4ccc5cc(Cl)ccc5c4)CC3C(N)=O)sc2CN1.Cl (centres unmarked) [Example B-36, 2-Carbamoyl-4-[(6-chloronaphthalen-2-yl)sulfonyl]-1-[(6-methyl-4,5,6,7-tetrahydrothiazolo[5,4-c]pyridin-2-yl)carbonyl]piperazine hydrochloride] | anti-FXa activity in the plasma (human Factor Xa): 68%; thrombin time (result in words) [1]: extended the thrombin time; anti-FXa action in the plasma (result in words) [2]: apparent anti-FXa action in the plasma was recognized; decrease in the number of the platelets [2]: suppressed; increase in the TAT concentration [2]: suppressed
13 | > 100000 nM | 5.6 nM | O=C(c1ncc(-c2ccncc2)cn1)N1CCN(S(=O)(=O)c2cc3ccc(Cl)cc3s2)CC1 [Example A-132, 1-[(6-Chlorobenzothiophen-2-yl)sulfonyl]-4-[[5-(pyridin-4-yl)pyrimidin-2-yl]carbonyl]piperazine] | 
14 | 16000 nM | 23 nM | O=C(c1ncc(-c2ccncc2)cn1)N1CCN(S(=O)(=O)c2ccc3cc(Cl)ccc3c2)CC1 [Example A-123, 1-[(6-Chloronaphthalen-2-yl)sulfonyl]-4-[[5-(pyridin-4-yl)pyrimidin-2-yl]carbonyl]piperazine] | 
15 | 2220 nM | 27 nM | C#Cc1ccc2[nH]c(S(=O)(=O)N3CCN(C(=O)c4ccc(-c5ccncc5)cc4)CC3)cc2c1 [Example A-103, 1-[(5-Ethynylindol-2-yl)sulfonyl]-4-[4-(pyridin-4-yl)benzoyl]piperazine] | 
16 |  |  | Cl.O=C(C1CC=C(c2ccncc2)CC1)N1CCN(S(=O)(=O)c2ccc3cc(Cl)ccc3c2)CC1 (racemic) [Example A-60, 1-[(6-Chloronaphthalen-2-yl)sulfonyl]-4-[[(1RS)-4-(pyridin-4-yl)-3-cyclohexene]carbonyl]piperazine hydrochloride] | anti-FXa activity in the plasma (human Factor Xa): 70%; extension of the prothrombin time (ratio after/before administration) [1]: 1.18 times
17 | 1550 nM | 6.9 nM | O=C(c1ccc(-c2cccc[n+]2[O-])cc1)N1CCN(S(=O)(=O)c2cc3cc(Cl)ccc3[nH]2)CC1 [Example A-109, 2-[4-[[4-[(5-Chloroindol-2-yl)sulfonyl]piperazin-1-yl]carbonyl]phenyl]pyridine N-oxide] | 
18 |  | 7000 nM | Cn1c(S(=O)(=O)N2CCN(C(=O)c3ccc(-c4ccncc4)cc3)CC2)cc2cc(Cl)ccc21 [Example A-91, 1-[(5-Chloro-1-methylindol-2-yl)sulfonyl]-4-[4-(pyridin-4-yl)benzoyl]piperazine] | 
19 |  | 3.5 nM | O=C(c1ncc(-c2cc[n+]([O-])cc2)s1)N1CCN(S(=O)(=O)c2cc3ccc(Cl)cc3s2)CC1 [Example A-239, 4-[2-[[4-[(6-Chlorobenzo[b]thien-2-yl)sulfonyl]piperazin-1-yl]carbonyl]thiazol-5-yl]pyridine N-oxide] | 
20 |  | 38 nM | O=C(c1ccc(-c2ccnc(CO)c2)cc1)N1CCN(S(=O)(=O)c2ccc3cc(Cl)ccc3c2)CC1 [Example A-152, 1-[(6-Chloronaphthalen-2-yl)sulfonyl]-4-[4-(2-hydroxymethylpyridin-4-yl)benzoyl]piperazine] | 

Row | Compound | IC50 (human thrombin; [3]) | IC50 (human FXa; [4]) | other results
21 | 4-[(6-Chlorobenzo[b]thien-2-yl)sulfonyl]-2-(hydroxymethyl)-1-[5-(pyridin-4-yl)pyrimidin-2-yl]piperazine hydrochloride [Example A-277] |  | 2.7 nM | 
